According to paper PMC6556231 (Journal of medicinal chemistry, 2019):
“Also recorded” adds a separate entry of the source.

What was measured:
[1] = Human liver microsomal Clint; assay type: in vitro ADME; details: for microsomal CLint: human, HLM Clint (μL/min/mg); for microsomal CLint / HLM Clint: human liver microsomes
[2] = test system: Salmonella typhimurium strains; assay: Ames fluctuation assay; assay type: cell-based; details: with and without rat liver S9 fraction
Chemical stability = assay type: physicochemical
[3] = Preliminary toxicity study in mice; assay type: in vivo; details: 100 mg/kg orally
HepG2 cells = assay: Drug toxicity to HepG2 cells; assay type: cell-based, human; details: 48 h, MTT
[4] = Human plasma protein binding; assay type: in vitro ADME; details: equilibrium dialysis, 18 h, 37 °C
Aqueous pH 7.4 = assay type: physicochemical; details: 0.1 M phosphate buffer pH 7.4, 25 °C, 20-24 h

CN1C[C@@H]2C[C@H]1CN2c1ncc(-c2ccc3c(Nc4cnccn4)ccnc3c2)cn1 [10a, 7-(2-((1S,4S)-5-Methyl-2,5-diazabicyclo[2.2.1]heptan-2-yl)pyrimidin-5-yl)-N-(pyrazin-2-yl)quinolin-4-amine]
Increase in metabolic stability compared to 1 [1]: 4 fold

CN1C[C@H]2C[C@@H]1CN2c1ncc(-c2ccc3c(Nc4cnccn4)ccnc3c2)cn1 [10b, 7-(2-((1R,4R)-5-Methyl-2,5-diazabicyclo[2.2.1]heptan-2-yl)pyrimidin-5-yl)-N-(pyrazin-2-yl)quinolin-4-amine]
Increase in metabolic stability compared to 1 [1]: 4 fold

CN1CCCN(c2ncc(-c3ccc4/c(=N/c5cnccn5)ccn(C)c4c3)cn2)CC1 [22a, (E)-1-Methyl-7-(2-(4-methyl-1,4-diazepan-1-yl)pyrimidin-5-yl)-N-(pyrazin-2-yl)quinolin-4(1H)-imine]
Genotoxicity [2]: Neither 22a or its metabolites were found to be genotoxic; also recorded: neither it, nor its metabolites, are genotoxic | microsomal CLint [1]: 22 µL/min/mg | Hydrolytic stability (Chemical stability; acidic and basic conditions): hydrolytic stability was confirmed under both acidic and basic conditions | Stability to hard and soft nucleophile (Chemical stability; glutathione and cyanide): stable in the presence of both glutathione and cyanide | Adverse effects in preliminary toxicity study [3]: no adverse effects

tert-Butyl methyl(2-((4-(4-(pyrazin-2-ylamino)quinolin-7-yl)phenyl)amino)ethyl)carbamate [6c]
HepG2 TC50 (HepG2 cells): 8.0 µM | HLM Clint [1]: >300 µL/min/mg | Human PPB (%) [4]: 95% | Aq sol (μM) (thermodynamic solubility) (Aqueous pH 7.4): 3.0 µM

Cc1c(-c2cnc(N3CCN(C)CC3)nc2)ccc2c(Nc3cnccn3)ccnc12 [9b, 8-Methyl-7-(2-(4-methylpiperazin-1-yl)pyrimidin-5-yl)-N-(pyrazin-2-yl)quinolin-4-amine]
microsomal CLint [1]: 120 µL/min/mg

Cc1cc2c(Nc3cnccn3)ccnc2cc1-c1cnc(N2CCN(C)CC2)nc1 [9a, 6-Methyl-7-(2-(4-methylpiperazin-1-yl)pyrimidin-5-yl)-N-(pyrazin-2-yl)quinolin-4-amine]
microsomal CLint [1]: 130 µL/min/mg

CN1CCN(Nc2ncc(-c3ccc4c(Nc5cnccn5)ccnc4c3)cn2)CC1 [16f, 7-(2-((4-Methylpiperazin-1-yl)amino)pyrimidin-5-yl)-N-(pyrazin-2-yl)quinolin-4-amine]
Increase in metabolic stability compared to 1 [1]: 10 fold | HLM Clint [1]: 16 µL/min/mg
